From patent publication US20130315843A1, “COMPOSITION FOR REDUCTION OF TRPA1 AND TRPV1 SENSATIONS” (priority 2012, published 2013)

Molecular target: T1, human TRPA1 (Homo sapiens, UniProt O75762)
Test: FLIPR Ca2+ assay, reduction of hydrogen peroxide activation of TRPA1
Assay type: cell-based
Design: expressed in transfected cells
Settings: not given
Method: After centrifugation, a pellet of cells was formed in the bottom of the tube separating them from the supernatant solution.
The pelleted cells were re-suspended in 10 ml assay buffer and 90 μl aliquots (˜50,000 cells) per well delivered to a 96-well assay plate containing 10 μl of test compounds ([…]) or buffer control and incubated at room temperature for 30 minutes.

T1 sequence (O75762 whole entry): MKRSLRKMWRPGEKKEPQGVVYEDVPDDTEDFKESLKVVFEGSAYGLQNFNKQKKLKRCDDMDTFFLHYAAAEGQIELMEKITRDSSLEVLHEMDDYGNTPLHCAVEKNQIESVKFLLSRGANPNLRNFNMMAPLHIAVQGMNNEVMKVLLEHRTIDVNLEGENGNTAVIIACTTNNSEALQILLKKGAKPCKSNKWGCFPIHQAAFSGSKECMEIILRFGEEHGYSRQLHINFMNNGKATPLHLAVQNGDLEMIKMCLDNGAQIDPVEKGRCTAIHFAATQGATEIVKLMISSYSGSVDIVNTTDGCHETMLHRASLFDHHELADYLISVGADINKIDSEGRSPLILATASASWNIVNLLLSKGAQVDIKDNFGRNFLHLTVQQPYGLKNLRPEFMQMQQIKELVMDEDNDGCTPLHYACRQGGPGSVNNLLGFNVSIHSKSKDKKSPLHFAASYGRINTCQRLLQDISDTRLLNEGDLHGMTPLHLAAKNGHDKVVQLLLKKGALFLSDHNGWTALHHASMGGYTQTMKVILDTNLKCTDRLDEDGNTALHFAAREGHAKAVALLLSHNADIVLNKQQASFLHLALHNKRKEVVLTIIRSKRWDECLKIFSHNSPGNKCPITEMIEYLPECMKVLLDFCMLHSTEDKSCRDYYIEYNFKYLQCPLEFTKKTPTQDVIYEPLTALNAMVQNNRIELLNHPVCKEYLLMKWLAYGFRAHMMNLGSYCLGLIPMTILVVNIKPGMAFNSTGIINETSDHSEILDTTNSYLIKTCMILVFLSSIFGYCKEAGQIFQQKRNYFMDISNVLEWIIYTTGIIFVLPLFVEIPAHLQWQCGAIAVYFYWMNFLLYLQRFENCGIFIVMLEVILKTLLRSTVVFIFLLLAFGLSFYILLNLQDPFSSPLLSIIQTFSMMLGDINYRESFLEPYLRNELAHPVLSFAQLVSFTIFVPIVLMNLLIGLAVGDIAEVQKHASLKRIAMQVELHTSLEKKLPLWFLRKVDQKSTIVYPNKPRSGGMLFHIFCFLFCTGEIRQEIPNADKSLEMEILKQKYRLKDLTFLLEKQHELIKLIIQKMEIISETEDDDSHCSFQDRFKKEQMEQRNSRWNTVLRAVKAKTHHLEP

Compound	Average Ca++ Counts	Block of hydrogen peroxide activation of TRPA1
OCc1ccco1 [furfuryl alcohol]	5585.5 Counts	BLOCK BOTH MENTHOL AND H2O2 ON TRPA1

Same assay, conditions: read-out: % Reduction of Hydrogen Peroxide TRPA1 Activation

Compound	inhibition at 100 µM
OCc1ccco1 [furfuryl alcohol]	47.3%

Molecular target: T1, human TRPA1
Test: FLIPR Ca2+ assay, reduction of L-Menthol activation of TRPA1
Settings: not given

Compound	Block of L-Menthol activation of TRPA1
C[N+](C)(C)CCO.O=C([O-])C(O)C(O)C(=O)O (stereo not shown) [choline bitartrate]	BLOCK ONLY MENTHOL/TRPA1
O=C(O)CN(CCN(CC(=O)O)CC(=O)O)CC(=O)O [edta]	BLOCK ONLY MENTHOL/TRPA1

Same assay, conditions: 100 μM antagonist vs 1 mM L-Menthol

Compound	Block of L-Menthol activation of TRPA1
CC(=O)OCC1=CCC2C[C@@H]1C2(C)C	BLOCK ONLY MENTHOL/TRPA1
COC(C=C(C)CCC=C(C)C)OC (mixture of isomers)	BLOCK ONLY MENTHOL/TRPA1
CC(C)=CCCC(C)CCO (racemic) [(+−)-beta; -Citronellol]	BLOCK ONLY MENTHOL/TRPA1
COc1ccc(OC)cc1 [1,4-dimethoxybenzene]	BLOCK ONLY MENTHOL/TRPA1
Cc1ccc(C(C)C)cc1 [1-isopropyl-4-methylbenzene]	BLOCK ONLY MENTHOL/TRPA1
CCCCCCCCO [1-octanol]	BLOCK ONLY MENTHOL/TRPA1
CCC(O)c1ccccc1 (stereo not shown) [1-phenyl 1-propanol]	BLOCK ONLY MENTHOL/TRPA1
Cc1nc(C)c(C)nc1C [2,3,5,6-tetramethylpyrazine]	BLOCK ONLY MENTHOL/TRPA1
Cc1ccc(C)c(O)c1C [2,3,6-trimethylphenol]	BLOCK ONLY MENTHOL/TRPA1
Cc1cnc(C)cn1 [2,5-dimethylpyrazine]	BLOCK ONLY MENTHOL/TRPA1
CCCOC(C)OCCc1ccccc1 (stereo not shown) [2-(1-propoxyethoxy)ethylbenzene]	BLOCK ONLY MENTHOL/TRPA1
C=CC1(C)CCC(C(=C)C)O1 (stereo not shown) [2-Isopropenyl-5-Methyl-5-Vinyltetrahydrofuran]	BLOCK ONLY MENTHOL/TRPA1
CC(=O)c1nccs1 [2-acetylthiazole]	BLOCK ONLY MENTHOL/TRPA1
O=C(Nc1ccccc1C(=O)O)c1ccccc1 [2-benzoylamino-benzoic acid]	BLOCK ONLY MENTHOL/TRPA1
CCc1nccnc1OC [2-ethyl-3-methoxypyrazine]	BLOCK ONLY MENTHOL/TRPA1
COc1ccccc1C=O [2-methoxybenzaldehyde]	BLOCK ONLY MENTHOL/TRPA1
COc1ccccc1C(=O)O [2-methoxybenzoic acid]	BLOCK ONLY MENTHOL/TRPA1
CC1OCCC1=O (stereo not shown) [2-methyltetrahydro-3-furanone]	BLOCK ONLY MENTHOL/TRPA1
CCC(C)C1CCCCC1=O (stereo not shown) [2-sec-butylcyclohexanone]	BLOCK ONLY MENTHOL/TRPA1
CC(=O)c1ccccc1O [2′-hydroxyacetophenone]	BLOCK ONLY MENTHOL/TRPA1
O=C(O)c1ccc(O)c(O)c1 [3,4-dihydroxybenzoic acid]	BLOCK ONLY MENTHOL/TRPA1
CC(=O)OCCC(C)S (stereo not shown) [3-mercaptobutyl acetate]	BLOCK ONLY MENTHOL/TRPA1
CSC(C)C(C)=O (stereo not shown) [3-methylthio-2-butanone]	BLOCK ONLY MENTHOL/TRPA1
OCc1ccco1 [furfuryl alcohol]	BLOCK BOTH MENTHOL AND H2O2 ON TRPA1

Molecular target: human TRPV1 (Homo sapiens, UniProt Q8NER1)
Sequence (Q8NER1 whole entry): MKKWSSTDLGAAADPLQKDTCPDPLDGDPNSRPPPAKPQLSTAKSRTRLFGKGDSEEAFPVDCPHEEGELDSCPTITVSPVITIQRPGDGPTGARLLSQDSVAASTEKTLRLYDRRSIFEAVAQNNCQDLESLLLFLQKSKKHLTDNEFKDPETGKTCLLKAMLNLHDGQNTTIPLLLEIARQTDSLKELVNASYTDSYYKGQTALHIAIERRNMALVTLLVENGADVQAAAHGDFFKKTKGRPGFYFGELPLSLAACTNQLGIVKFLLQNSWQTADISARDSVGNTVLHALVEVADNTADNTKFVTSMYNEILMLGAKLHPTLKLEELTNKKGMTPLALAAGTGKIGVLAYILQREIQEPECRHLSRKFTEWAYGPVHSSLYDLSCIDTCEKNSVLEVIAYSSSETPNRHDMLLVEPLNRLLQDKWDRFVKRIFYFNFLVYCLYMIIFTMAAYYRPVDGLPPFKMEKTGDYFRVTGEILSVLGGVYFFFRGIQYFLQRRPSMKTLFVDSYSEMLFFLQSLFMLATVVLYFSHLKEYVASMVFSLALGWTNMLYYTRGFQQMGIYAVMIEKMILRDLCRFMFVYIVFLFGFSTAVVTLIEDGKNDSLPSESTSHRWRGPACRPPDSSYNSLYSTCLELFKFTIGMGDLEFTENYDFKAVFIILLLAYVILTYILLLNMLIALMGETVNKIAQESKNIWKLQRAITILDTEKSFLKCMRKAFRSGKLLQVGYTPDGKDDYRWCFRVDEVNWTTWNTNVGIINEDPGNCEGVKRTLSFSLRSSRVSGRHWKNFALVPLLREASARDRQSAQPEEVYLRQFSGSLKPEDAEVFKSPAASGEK
Test: FLIPR Ca2+ assay, reduction of L-Menthol activation of TRPV1
Settings: not given

Compound	% Reduction of L-Menthol TRPV1 Activation	Average Ca2+ Counts
C[N+](C)(C)CCO.O=C([O-])C(O)C(O)C(=O)O (stereo not shown) [choline bitartrate]	39.1%	1141.3 Counts
O=C(O)CN(CCN(CC(=O)O)CC(=O)O)CC(=O)O [edta]	34.8%	1236.0 Counts

Same assay, conditions: antagonist 100 μM against 1 mM L-Menthol

Compound	Average Ca2+ Counts
COc1ccc(OC)cc1 [1,4-dimethoxybenzene]	3633.0 Counts
Cc1ccc(C(C)C)cc1 [1-isopropyl-4-methylbenzene]	1112.7 Counts
CCCCCCCCO [1-octanol]	1442.3 Counts
Cc1nc(C)c(C)nc1C [2,3,5,6-tetramethylpyrazine]	972.0 Counts
Cc1ccc(C)c(O)c1C [2,3,6-trimethylphenol]	1339.3 Counts
Cc1cnc(C)cn1 [2,5-dimethylpyrazine]	1040.0 Counts
CCCOC(C)OCCc1ccccc1 (stereo not shown) [2-(1-propoxyethoxy)ethylbenzene]	1480.7 Counts
CC(=O)c1nccs1 [2-acetylthiazole]	3569.5 Counts
O=C(Nc1ccccc1C(=O)O)c1ccccc1 [2-benzoylamino-benzoic acid]	1207.7 Counts
CCc1nccnc1OC [2-ethyl-3-methoxypyrazine]	1432.7 Counts
COc1ccccc1C=O [2-methoxybenzaldehyde]	1050.3 Counts
COc1ccccc1C(=O)O [2-methoxybenzoic acid]	1441.7 Counts
CC1OCCC1=O (stereo not shown) [2-methyltetrahydro-3-furanone]	993.7 Counts
CC(=O)c1ccccc1O [2′-hydroxyacetophenone]	1083.3 Counts
O=C(O)c1ccc(O)c(O)c1 [3,4-dihydroxybenzoic acid]	1539.7 Counts
CC(=O)OCCC(C)S (stereo not shown) [3-mercaptobutyl acetate]	1061.3 Counts
CSC(C)C(C)=O (stereo not shown) [3-methylthio-2-butanone]	1554.0 Counts

Same assay, conditions: read-out: % Reduction of L-Menthol TRPV1 Activation

Compound	inhibition at 100 µM
COc1ccc(OC)cc1 [1,4-dimethoxybenzene]	43.2%
Cc1ccc(C(C)C)cc1 [1-isopropyl-4-methylbenzene]	40.5%
CCCCCCCCO [1-octanol]	25.2%
Cc1nc(C)c(C)nc1C [2,3,5,6-tetramethylpyrazine]	47%
Cc1ccc(C)c(O)c1C [2,3,6-trimethylphenol]	30%
Cc1cnc(C)cn1 [2,5-dimethylpyrazine]	43.8%
CCCOC(C)OCCc1ccccc1 (stereo not shown) [2-(1-propoxyethoxy)ethylbenzene]	23.4%
CC(=O)c1nccs1 [2-acetylthiazole]	23.1%
O=C(Nc1ccccc1C(=O)O)c1ccccc1 [2-benzoylamino-benzoic acid]	36.1%
CCc1nccnc1OC [2-ethyl-3-methoxypyrazine]	25.7%
COc1ccccc1C=O [2-methoxybenzaldehyde]	43.3%
COc1ccccc1C(=O)O [2-methoxybenzoic acid]	25.2%
CC1OCCC1=O (stereo not shown) [2-methyltetrahydro-3-furanone]	46%
CC(=O)c1ccccc1O [2′-hydroxyacetophenone]	41.8%
O=C(O)c1ccc(O)c(O)c1 [3,4-dihydroxybenzoic acid]	20.7%
CC(=O)OCCC(C)S (stereo not shown) [3-mercaptobutyl acetate]	42.8%
CSC(C)C(C)=O (stereo not shown) [3-methylthio-2-butanone]	20%
